Measurements as given in ChEMBL document CHEMBL1134446, “Polyamine analogue antidiarrheals: a structure-activity study” (J Med Chem, 2001).
“And” between values parts separate entries of the source, which are not always exact repeats. Identical values can stand only once.

How the values were obtained:
Canis familiaris [1] = assay: MESPM/MEHSPH Distribution in kidney was determined after DESPM dosing of 4 mg/kg/day for 13 days in dog(cu dose-52.4) and sacrificed at 10 days PLD(cu dose-52 mg/kg); assay type: ADME, organism-based, Canis lupus familiaris; details: in vivo, 240 h
Canis familiaris [2] = assay: Spermidine Distribution in liver was determined after DESPM dosing of 4 mg/kg/day for 13 days in dog(cu dose-52.4) and sacrificed at 75 days PLD(cu dose-52 mg/kg); assay type: ADME, organism-based, Canis lupus familiaris; details: in vivo, 1800 h
Canis familiaris [3] = assay: Spermine Distribution in liver was determined after DESPM dosing of 1.87 mg/kg/day for 28 days in dog(cu dose-52.4) and sacrificed at 10 days PLD(cu dose-52.4 mg/kg); assay type: ADME, organism-based, Canis lupus familiaris; details: in vivo, 240 h
Rattus norvegicus [4] = assay: Percent reduction was determined by using the ratio of mean of treated animal to that of control animal at a dose of 14.3 mg/kg; assay type: functional
Canis familiaris [5] = assay: Spermine Distribution in liver was determined after DESPM dosing of 8.0 mg/kg/day for 4.5 days in dog(cu dose-52.4) and sacrificed at 75 days PLD(cu dose-36 mg/kg); assay type: ADME, organism-based, Canis lupus familiaris; details: in vivo, 1800 h
Canis familiaris [6] = assay: Spermine Distribution in kidney was determined after DESPM dosing of 1.87 mg/kg/day for 28 days in dog(cu dose-52.4) and sacrificed at 10 days PLD(cu dose-52.4 mg/kg); assay type: ADME, organism-based, Canis lupus familiaris; details: in vivo, 240 h
Canis familiaris [7] = assay: MESPM/MEHSPH Distribution in kidney was determined after DESPM dosing of 4 mg/kg/day for 13 days in dog(cu dose-52.4) and sacrificed at 75 days PLD(cu dose-52 mg/kg); assay type: ADME, organism-based, Canis lupus familiaris; details: in vivo, 1800 h
Canis familiaris [8] = assay: Spermidine Distribution in kidney was determined after DESPM dosing of 1.87 mg/kg/day for 28 days in dog(cu dose-52.4) and sacrificed at 75 days PLD(cu dose-52.4 mg/kg); assay type: ADME, organism-based, Canis lupus familiaris; details: in vivo, 1800 h
Canis familiaris [9] = assay: putrescine Distribution in kidney was determined after DESPM dosing of 6.0 mg/kg/day for 4.5 days in dog and sacrificed at 75 days PLD(cu dose-27 mg/kg); assay type: ADME, organism-based, Canis lupus familiaris; details: in vivo, 1800 h
Canis familiaris [10] = assay: putrescine Distribution in liver was determined after DESPM dosing of 4 mg/kg/day for 13 days in dog(cu dose-52.4) and sacrificed at 75 days PLD(cu dose-52 mg/kg); assay type: ADME, organism-based, Canis lupus familiaris; details: in vivo, 1800 h
Canis familiaris [11] = assay: MESPM/MEHSPH Distribution in liver was determined after DESPM dosing of 4 mg/kg/day for 13 days in dog(cu dose-52.4) and sacrificed at 10 days PLD(cu dose-52 mg/kg); assay type: ADME, organism-based, Canis lupus familiaris; details: in vivo, 240 h
Rattus norvegicus [12] = assay: Weight loss of rat over the 6-h experimental period when a dose of 0 mg/kg (0 administered; assay type: functional
Canis familiaris [13] = assay: putrescine Distribution in kidney was determined after DESPM dosing of 1.87 mg/kg/day for 28 days in dog and sacrificed at 75 days PLD(cu dose-52.4 mg/kg); assay type: ADME, organism-based, Canis lupus familiaris; details: in vivo, 1800 h
Canis familiaris [14] = assay: Spermine Distribution in kidney was determined after DESPM dosing of 4 mg/kg/day for 13 days in dog(cu dose-52.4) and sacrificed at 10 days PLD(cu dose-52 mg/kg); assay type: ADME, organism-based, Canis lupus familiaris; details: in vivo, 240 h
Canis familiaris [15] = assay: Spermine Distribution in liver was determined after DESPM dosing of 4 mg/kg/day for 13 days in dog(cu dose-52.4) and sacrificed at 10 days PLD(cu dose-52 mg/kg); assay type: ADME, organism-based, Canis lupus familiaris; details: in vivo, 240 h
Canis familiaris [16] = assay: Distribution in kidney was determined after DEHSPM dosing of 2.0 mg/kg/day for 29 days in dog(cu dose-52.4) and sacrificed at 10 days PLD(cu dose-58 mg/kg); assay type: ADME, organism-based, Canis lupus familiaris; details: in vivo, 240 h
Canis familiaris [17] = assay: Spermidine Distribution in kidney was determined after DEHSPM dosing of 2.0 mg/kg/day […] in dog(cu dose-52.4) and sacrificed at 10 days PLD(cu dose-22 mg/kg); assay type: ADME, organism-based, Canis lupus familiaris; details: in vivo, 240 h
Canis familiaris [18] = assay: putrescine Distribution in liver was determined after DEHSPM dosing of 2.0 mg/kg/day for 29 days in dog(cu dose-52.4) and sacrificed at 10 days PLD([…]); assay type: ADME, organism-based, Canis lupus familiaris; details: in vivo, 240 h
Canis familiaris [19] = assay: MESPM/MEHSPH Distribution in kidney was determined after DEHSPM dosing of 2.0 mg/kg/day for 29 days in dog(cu dose-52.4) and sacrificed at 10 days PLD(cu dose-22 mg/kg); assay type: ADME, organism-based, Canis lupus familiaris; details: in vivo, 240 h
Canis familiaris [20] = assay: HSPM Distribution in kidney was determined after DEHSPM dosing of 2.0 mg/kg/day for 29 days in dog(cu dose-52.4) and sacrificed at 10 days PLD(cu dose-22 mg/kg); assay type: ADME, organism-based, Canis lupus familiaris; details: in vivo, 240 h
Canis familiaris [21] = assay: HSPM Distribution in liver was determined after DEHSPM dosing of 2.0 mg/kg/day for 29 days in dog(cu dose-52.4) and sacrificed at 10 days PLD(cu dose-58 mg/kg); assay type: ADME, organism-based, Canis lupus familiaris; details: in vivo, 240 h
Canis familiaris [22] = assay: Distribution in liver was determined after DEHSPM dosing of 2.0 mg/kg/day for 29 days in dog(cu dose-52.4) and sacrificed at 10 days PLD(cu dose-58 mg/kg); assay type: ADME, organism-based, Canis lupus familiaris; details: in vivo, 240 h

In the case of `CCNCCCNCCCCNCCCNCC` [BIS(ETHYL)SPERMINE], the “Wet weight of tissue” value (Canis familiaris [1]) is reported as 7 nM/g, the “Wet weight of tissue” value (Canis familiaris [2]) is reported as 264 nM/g and the “Wet weight of tissue” value (Canis familiaris [3]) is reported as 850 nM/g. The Reduction (Rattus norvegicus [4]) was 66% and 92%, the “Wet weight of tissue” value (Canis familiaris [5]) was 1058 nM/g and the “Wet weight of tissue” value (Canis familiaris [6]) was 998 nM/g. The “Wet weight of tissue” value (Canis familiaris [7]) was 0 nM/g, the “Wet weight of tissue” value (Canis familiaris [8]) was 87 nM/g and the “Wet weight of tissue” value (Canis familiaris [9]) was 8 nM/g. The “Wet weight of tissue” value (Canis familiaris [10]) was 62 nM/g, the “Wet weight of tissue” value (Canis familiaris [11]) was 34 nM/g and the Weight loss (Rattus norvegicus [12]) was 11.9 g. The “Wet weight of tissue” value (Canis familiaris [13]) was 16 nM/g, the “Wet weight of tissue” value (Canis familiaris [14]) was 277 nM/g and the “Wet weight of tissue” value (Canis familiaris [15]) was 462 nM/g.

For `CCNCCCCNCCCCNCCCCNCC` [DIETHYLHOMOSPERMINE], the “Wet weight of tissue” value (Canis familiaris [16]) was 98 nM/g, the “Wet weight of tissue” value (Canis familiaris [17]) was 68 nM/g and the “Wet weight of tissue” value (Canis familiaris [18]) was 34 nM/g. For the same compound, the “Wet weight of tissue” value (Canis familiaris [19]) was 3 nM/g, the “Wet weight of tissue” value (Canis familiaris [20]) was 43 nM/g and the “Wet weight of tissue” value (Canis familiaris [21]) was 751 nM/g. For the same compound, the “Wet weight of tissue” value (Canis familiaris [22]) was 80 nM/g.
